Source: patent publication US9549935B2, “Methods and compositions for treating migraines using noribogaine” (DemeRx, Inc., priority 2014, dated 2017)

Assay: Plasma noribogaine pharmacokinetics after ascending single oral doses in healthy volunteers
Assay type: in vivo, human
Conditions: for mean AUC/24 hr / mean AUC/24: fasting, serum; for CL/F: fasted healthy volunteers, mean (SD), n = 6
Text: Thirty-six healthy, drug-free male volunteers, aged between 18-55 years, were enrolled in and completed the study. This was an ascending single-dose, placebo-controlled, randomized double blind, parallel group study. Mean (SD) age was 22.0 (3.3) years, mean (SD) height was 1.82 (0.08) m, and mean (SD) weight was 78.0 (9.2) kg. Twenty-six subjects were Caucasian, 3 were Asian, 1 Maori, 1 Pacific Islander, and 5 Other. The protocol for this study was approved by the Lower South Regional Ethics Committee (LRS/12/06/015), and the study was registered with the Australian New Zealand Clinical Trial Registry (ACTRN12612000821897). All subjects provided signed informed consent prior to enrolment, and were assessed as suitable to participate based on review of medical history, physical examination, safety laboratory tests, vital signs and ECG.
Within each dose level, 6 participants were randomized to receive noribogaine and 3 to receive placebo, based on a computer-generated random code. Dosing began with the lowest noribogaine dose, and subsequent cohorts received the next highest dose after the safety, tolerability, and blinded pharmacokinetics of the completed cohort were reviewed and dose-escalation approved by an independent Data Safety Monitoring Board. Blinded study drug was administered as a capsule with 240 ml of water after an overnight fast of at least 10 hours. […] Participants were confined to the study site from 12 hours prior to drug administration, until 72 hours post-dose, and there were subsequent outpatient assessments until 216 hours post-dose.
Blood was obtained for pharmacokinetic assessments pre-dose and then at 0.25, 0.5, 0.75, 1.0, 1.25, 1.5, 2, 2.5, 3, 3.5, 4, 4.5, 5, 5.5, 6, 7, 8, 10, 12, 14, 18, 24, 30, 36, 48, 60, 72, 96, 120, 168 and 216 hours post-dose. Samples were centrifuged and plasma stored at −70° C. until analyzed. Block 24 hour urine collections were obtained following study drug administration for the 30 and 60 mg cohorts. Aliquots were frozen at −20° C. until analyzed.
Plasma noribogaine concentrations were determined in the 3 mg and 10 mg dose groups using a validated, sensitive LCMSMS method. Sample preparation involved double extraction of basified plasma samples with tert-butyl methyl ether, drying the samples under a stream of nitrogen and reconstitution of sample with acetonitrile:B.P. water (5:95, v/v) containing 0.1% (v/v) formic acid. The compounds were separated by a 150×2.0 mm Luna 5 μm C18 column and detected with a triple-quadrupole API 4000 or 5000 mass spectrometer using electrospray ionization in positive mode and multiple reaction monitoring. Noribogaine-d4 was used as the internal standard. The precursor-product ion transition values for noribogaine were m/z 297.6→122.3, and for the internal standard noribogaine-d4 m/z 301.1→122.2. Analyst® software was used for data acquisition and processing. The ratio of the peak area of noribogaine to the internal standard noribogaine-d4 was used for calibration and measurement of the unknown concentration of noribogaine. The lower limit of quantification (LLOQ) was 0.025 ng/ml noribogaine. The calibration curve was between 0.025 and 25.600 ng/ml noribogaine. Mobile phase A was acetonitrile:B.P. water (5:95, v/v) containing 0.1% (v/v) formic acid, and mobile phase B was acetonitrile:B.P. water (95:5, v/v) containing 0.1% (v/v) formic acid. Total run time was 6 minutes. Binary flow: Initial concentration was 8% mobile phase B; hold at 8% mobile phase B for 0.5 minutes and linear rise to 90% mobile phase B over 1.5 minutes; hold at 90% mobile phase B for 1 minute and then drop back to 8% mobile phase B over 0.01 minute. Equilibrate system for 3 minutes. Total run time was 6 minutes. Within- and between-day assay precision was <9%, and within- and between-day assay accuracy was <9%.
Plasma noribogaine concentrations were determined in the 30 mg and 60 mg dose groups using a validated, sensitive LCMSMS method. […]

## CC[C@H]1CC2C[C@H]3c4[nH]c5ccc(O)cc5c4CCN(C2)C13 [Noribogaine, noribogaine]
3-60 mg single oral doses, healthy volunteers
  Dose-proportionality of Cmax and AUC: increased linearly with dose
Across 3-60 mg dose groups, healthy volunteers
  time of peak concentrations after oral dosing: 2 to 3 h
Across dose groups (3-60 mg), healthy volunteers
  Mean half-life estimates: 28 to 50 h
Single dose of 3 mg free base
  mean AUC/24 hr: 3.1 ng/mL
Single dose of 10 mg free base
  mean AUC/24 hr: 10.6 ng/mL
Single dose of 30 mg free base
  mean AUC/24: 29.2 ng/mL
Single dose of 60 mg free base
  mean AUC/24: 61 ng/mL
Single oral 3 mg dose
  CL/F: 41.4 (7.0) L/h
Single oral 10 mg dose
  CL/F: 42.3 (12.0) L/h
Single oral 30 mg dose
  CL/F: 46.9 (16.4) L/h
Single oral 60 mg dose
  CL/F: 34.0 (11.4) L/h
